According to patent US20120039805A1, “Therapeutics And Methods For Treating Neoplastic Diseases Comprising Determining The Level Of Caveolin-1 And/Or Caveolin-2 In A Stromal Cell Sample” (PANGEA BIOSCIENCES, INC., priority 2009, published 2012):

Key:
Cav-1 = assay: Co-culture of MCF-7 cells with normal human fibroblasts: Cav-1 down-regulation in fibroblasts; format: cell-based; details: within 5 days of co-culture
Source text: Using this system, it was observed that within 5 days of co-culture MCF-7 cells down-regulate the expression of Cav-1 in adjacent stromal fibroblasts. This occurs via the degradation of Cav-1 in lysosomal structures, and can be inhibited by chloroquine, an anti-lysomal agent. Most importantly, MCF-7 cells induce oxidative stress in the adjacent fibroblasts via the over-production of reactive oxygen species (ROS). ROS, in turn, is known to stabilize and activate certain transcription factors, such as NFkB and HIF. NFkB- and HIF- are the master regulators of “inflammation” and “hypoxia/aerobic glycolysis” in the tumor microenvironment. Thus, in order to detect the activation of NFkB and HIF only in the fibroblast cell population, two different fibroblast cell lines engineered to express either a NFkB-luciferase or HIF-luciferase transcriptional reporter were used. […] As such, NFkB is activated first, while HIF is activated on day 4 and day 5 of coculture, coicindent with Cav-1 down-regulation. Thus, cancer cells induce the Warburg effect in adjacent stromal fibroblasts via the activation of NFkB and HIF-target genes, leading to inflammation and aerobic glycolysis. These findings provide a mechanistic basis for the “Reverse Warburg Effect”, and a new high-throughput drug-screening assay for the identification of novel compounds that block the “Reverse Warburg Effect”.

neovascularization = details: Oikawa (1988); cited from earlier work
[1] = tested on: invasive carcinomas of the breast; assay: Breast cancer tissue microarray cohort: progression-free survival by treatment and stromal Cav-1; format: in vivo, human
Protocol: Breast tissues for tissue microarray construction were obtained from the Surgical Pathology tiles at the University of Michigan with institutional Review Board (IRB) approval. The TMA contained tissues derived from 154 largely consecutive patients with invasive carcinomas of the breast, with follow-up information treated at the University of Michigan from 1987-1991. Clinical and pathological variables were determined following well-established criteria. All invasive carcinomas were graded according to the method described by Elston and Ellis 17; Lymphovascular Invasion (LVI) was classified as either present or absent. The tissue microarrays were constructed, as previously described, using a tissue arrayer (Beecher Instruments, Silver Spring, Md.). Three tissue cores (0.6 mm diameter) were sampled from each block to account for tumor and tissue heterogeneity and transferred to the recipient block. Only cases with two or three cores containing tumor stromal cells were considered for statistical analysis in order to address possible heterogeneity of the staining in various tumor portions. Clinical and treatment information was extracted by chart review.
Our study population consists of 154 women diagnosed with breast cancer, with a median age of 59.5 years (range 28-96 years). 85% of the women were white. The median follow-up time for all survivors was 8.4 years (>30 days-18.5 years). […] The median time to recurrence or death from any cause was 7.1 years.
Statistical Analysis. For each patient, the date of breast cancer diagnosis, date of last follow-up, vital status at last follow-up, causes of death (breast cancer or other), and breast cancer recurrence, were recorded. Stromal caveolin was scored for each tissue sample based on 3 cores taken from the sample and given a numeric score of 0, 1 or 2, depending on the degree of stromal Cav-1 staining. The median of the three numeric scores was taken to be the stromal Cav-1 score for the sample. In the event that only two of the cores were scorable, and the median score was fractional, it was rounded upward to reflect the presence of stromal Cav-1. […]
Our primary outcome of interest in this study is progression-free survival (PFS) from time of diagnosis to the presence of metastasis, death, or last visit. PFS is evaluated using Kaplan-Meier estimation, and comparison of stratified survival curves was done using log-rank tests. […] Associations between the presence of stromal Cav-1 and other factors, including age, race, tumor grade, tumor size, lymph node status, histological subtype, estrogen receptor (ER), progesterone receptor (PR) and HER2, and presence of recurrent disease, were evaluated using Fisher's exact and Kruskal-Wallis tests, depending on the discrete or continuous nature of the other factors.

[2] = tested on: PD-ECGF/TP transfected cells; details: Haraguchi (1993); cited from earlier work
[3] = tested on: MDA-MB-231 breast cancer cells co-injected with Cav-1-deficient stromal fibroblasts; assay: Two-component xenograft: nude mice co-injected with MDA-MB-231 cells and Cav-1-deficient stromal fibroblasts, treated with glycolysis inhibitors; format: in vivo; details: given individually, 200 mg/kg; mice co-injected with Cav-1-deficient stromal fibroblasts and MDA-MB-231 cells
Protocol: Mice co-injected with Cav-1-deficient stromal fibroblasts and MDA-MB-231 breast cancer cells were treated with glycolysis inhibitors. The efficacy of two well-established glycolysis inhibitors, namely 2-DG (2-deoxy-D-glucose) and DCA (dichloro-acetate), individually or in combination were tested.
To provide additional experimental validation for the idea that an absence of stromal Cav-1 promotes breast cancer tumor growth and angiogenesis, a 2-component cell-system using xenografts in immuno-deficient female nude mice was developed. Briefly, the flanks of nude mice were injected with a mixture of 1) MDA-MB-231 cells (a highly aggressive human breast cancer cell line; 1.0×10^−6 cells) and 2) stromal fibroblasts, derived from either WT or Cav-1 (−/−) null mice (0.3×10^−6 cells). After 3 weeks, nude mice were sacrificed and breast cancer-derived tumors were subjected to analysis for growth (tumor weight and volume measurements) and immuno-histochemistry with markers of angiogenesis, such as CD31 (a.k.a, PECAM1).
In this two-component system, nude mice are co-injected with i) human breast cancer cells (MDA-MB-231), and ii) stromal fibroblasts (WT versus Cav-1 (−/−) deficient).

[4] = Tamoxifen-treated patients, stromal Cav-1 absent

Structure (SMILES): CCN(CC)CCCC(C)Nc1ccnc2cc(Cl)ccc12 (centres unmarked) [chloroquine]
- degradation of Cav-1 in lysosomal structures of fibroblasts co-cultured with MCF-7 cells (Cav-1): inhibited

Structure (SMILES): CC(=O)O[C@]1(C(C)=O)CC[C@H]2[C@@H]3C[C@H](C)C4=CC(=O)CC[C@]4(C)[C@H]3CC[C@@]21C [MPA, medroxyprogesterone acetate]
- neovascularization in the rabbit corneal assay (neovascularization): potently inhibited neovascularization

Structure (SMILES): CC/C(=C(\c1ccccc1)c1ccc(OCCN(C)C)cc1)c1ccccc1 [Tamoxifen]
- Hazard ratio, Cox regression of Progression-Free Survival (PFS) ([1]; Tamoxifen use Yes vs No (ref), adjusted for T stage, N stage, stromal Cav-1, 101 observations): 0.621
- Median Progression-Free Survival (PFS) [1, 4]: 3.55 years
- Percent of Patients Alive with No Recurrence, 5-Year PFS [1, 4]: 28.6%
- Percent of Patients Alive with No Recurrence, 5-Year PFS ([1]; Tamoxifen-treated patients, stromal Cav-1 present): 90.2%

Structure (SMILES): C[C@H]1O[C@@H](n2cc(F)c(=O)[nH]c2=O)[C@H](O)[C@@H]1O [5′DFUR, 5′-deoxy-5-fluorouridine]
- antitumor effect in PD-ECGF/TP transfected cells compared with untransfected wild-type cells [2]: dramatic enhancement of antitumor effect

Structure (SMILES): O=CC[C@@H](O)[C@H](O)[C@H](O)CO [2-DG, 2-deoxy-D-glucose]
- effect on tumor growth [3]: no effect on tumor growth
